# According to US20130217664A1, “NOVEL COMPOUNDS USEFUL FOR THE TREATMENT OF DEGENERATIVE AND INFLAMMATORY DISEASES” (priority 2012, published 2013):
# Tests used:
# Format in all cases: biochemical
# human JAK1 = target: T1, human JAK1 (Homo sapiens, UniProt P23458); test: JAK1 inhibition assay (polyGT substrate / Ulight-JAK1 peptide); details: recombinant human JAK1 catalytic domain; polyGT or Ulight-JAK1 peptide assay
# T1 construct: catalytic domain, amino acids 866-1154; catalog number PV4774; purchased Invitrogen PV4774
# T1 sequence (P23458 866-1154): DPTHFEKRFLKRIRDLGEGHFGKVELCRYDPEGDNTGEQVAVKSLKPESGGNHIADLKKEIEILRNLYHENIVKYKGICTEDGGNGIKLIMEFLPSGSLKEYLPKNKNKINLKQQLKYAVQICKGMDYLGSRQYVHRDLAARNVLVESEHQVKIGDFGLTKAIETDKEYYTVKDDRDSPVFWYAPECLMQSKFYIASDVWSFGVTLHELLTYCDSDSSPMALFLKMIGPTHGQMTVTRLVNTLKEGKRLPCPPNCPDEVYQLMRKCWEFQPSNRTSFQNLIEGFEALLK
# Outline: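 Two formats. PolyGT radiometric: 45 min at 30 °C, stopped with phosphoric acid, counted as cpm. Ulight-JAK1 peptide: 60 min at room temperature, stopped with Eu-anti-phosphotyrosine/EDTA, read as RFU. Percent inhibition normalised to vehicle and 10 μM staurosporine.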
# human JAK2 = target: T2, human JAK2 (Homo sapiens, UniProt O60674); test: JAK2 inhibition assay (polyGT substrate / Ulight-JAK1 peptide); details: recombinant human JAK2 catalytic domain; polyGT or Ulight-JAK1 peptide assay
# T2 construct: catalytic domain (amino acids 808-1132; catalog number PV4210); GST; purchased Invitrogen PV4210
# T2 sequence (O60674 808-1132): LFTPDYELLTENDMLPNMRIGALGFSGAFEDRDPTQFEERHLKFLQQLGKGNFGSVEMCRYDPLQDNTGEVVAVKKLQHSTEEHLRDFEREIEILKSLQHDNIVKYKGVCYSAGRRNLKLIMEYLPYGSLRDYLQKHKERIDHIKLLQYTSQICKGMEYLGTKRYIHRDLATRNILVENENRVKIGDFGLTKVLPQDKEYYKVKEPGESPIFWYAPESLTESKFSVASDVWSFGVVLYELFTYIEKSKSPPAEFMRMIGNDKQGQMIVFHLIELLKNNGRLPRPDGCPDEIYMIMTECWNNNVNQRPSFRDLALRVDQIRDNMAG
# Outline: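 Radiometric: 0.025 mU JAK2 with 2.5 μg polyGT, 1 μM ATP plus ^33P-ATP in MOPS pH 7.5 buffer, 1% DMSO, 90 min at 30° C.; filter counting. Alternative TR-FRET format with Ulight-JAK1 peptide, 60 min at room temperature, Eu-anti-phosphotyrosine detection.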
# human JAK3 = target: T3, human JAK3 (Homo sapiens, UniProt P52333); test: JAK3 inhibition assay; details: recombinant human JAK3 catalytic domain; polyGT substrate
# T3 construct: catalytic domain (amino acids 781-1124; catalog number PV3855); purchased Invitrogen PV3855
# T3 sequence (P52333 781-1124): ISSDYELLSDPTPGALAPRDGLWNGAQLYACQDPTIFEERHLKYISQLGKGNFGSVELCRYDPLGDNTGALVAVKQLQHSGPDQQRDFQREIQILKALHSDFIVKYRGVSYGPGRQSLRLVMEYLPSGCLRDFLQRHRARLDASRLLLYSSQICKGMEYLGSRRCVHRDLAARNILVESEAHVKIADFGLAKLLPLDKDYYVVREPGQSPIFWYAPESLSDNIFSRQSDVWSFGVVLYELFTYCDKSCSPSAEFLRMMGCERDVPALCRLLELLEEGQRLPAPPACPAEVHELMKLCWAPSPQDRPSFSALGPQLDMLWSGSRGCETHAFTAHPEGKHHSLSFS
# Procedure: 1.3 JAK3 Inhibition Assay
# 0.5 ng JAK3 protein was incubated with 2.5 μg polyGT substrate (Sigma catalog number P0275) in kinase reaction buffer (25 mM Tris pH 7.5, 0.5 mM EGTA, 10 mM MgCl2, 2.5 mM DTT, 0.5 mM Na3VO4, 5 mM b-glycerolphosphate, 0.01% Triton X-100, 1 μM non-radioactive ATP, 0.25 μCi 33P-gamma-ATP (GE Healthcare, catalog number AH9968) final concentrations) with or without 5 μL containing test compound or vehicle (DMSO, 1% final concentration), in a total volume of 25 μL, in a polypropylene 96-well plate (Greiner, V-bottom). After 45 min at 30° C., reactions were stopped by adding 25 μL/well of 150 mM phosphoric acid. […] Plates were washed 6 times with 300 μL per well of a 75 mM phosphoric acid solution and the bottom of the plates was sealed. 40 μL/well of Microscint-20 was added, the top of the plates was sealed and readout was performed using the Topcount (Perkin Elmer). Kinase activity was calculated by subtracting counts per min (cpm) obtained in the presence of a positive control inhibitor (10 μM staurosporine) from cpm obtained in the presence of vehicle. The ability of a test compound to inhibit this activity was determined as:
# (§1) Percentage inhibition=((cpm determined for sample with test compound present−cpm determined for sample with positive control inhibitor)divided by(cpm determined in the presence of vehicle−cpm determined for sample with positive control inhibitor))*100.
# Dose dilution series were prepared for the compounds enabling the testing of dose-response effects in the JAK3 assay and the calculation of the IC50 for each compound. Each compound was routinely tested at concentration of 20 μM followed by a 1/5 serial dilution, 10 points in a final concentration of 1% DMSO.
# human TYK2 = target: T4, human TYK2 (Homo sapiens, UniProt P29597); test: TYK2 inhibition assay; details: recombinant human TYK2 catalytic domain, polyGT substrate
# T4 construct: catalytic domain (amino acids 871-1187; catalog number 08-147); purchased Carna Biosciences 08-147
# T4 sequence (P29597 871-1187): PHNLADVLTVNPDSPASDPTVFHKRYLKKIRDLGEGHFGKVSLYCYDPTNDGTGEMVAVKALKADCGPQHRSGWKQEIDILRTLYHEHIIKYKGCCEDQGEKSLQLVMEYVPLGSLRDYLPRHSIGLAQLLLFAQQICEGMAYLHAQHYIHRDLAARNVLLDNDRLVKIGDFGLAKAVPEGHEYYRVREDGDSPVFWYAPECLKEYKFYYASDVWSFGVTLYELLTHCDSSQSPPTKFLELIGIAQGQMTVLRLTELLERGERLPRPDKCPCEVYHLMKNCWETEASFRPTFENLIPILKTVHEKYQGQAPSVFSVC
# Procedure: 1.4 TYK2 Inhibition Assay
# After 90 min at 30° C., reactions were stopped by adding 25 μL/well of 150 mM phosphoric acid. […] Plates were washed 6 times with 300 μL per well of a 75 mM phosphoric acid solution and the bottom of the plates was sealed. 40 μL/well of Microscint-20 was added, the top of the plates was sealed and readout was performed using the Topcount (Perkin Elmer). Kinase activity was calculated by subtracting counts per min (cpm) obtained in the presence of a positive control inhibitor (10 μM staurosporine) from cpm obtained in the presence of vehicle. The ability of a test compound to inhibit this activity was determined as:
# as §1
# Dose dilution series were prepared for the compounds enabling the testing of dose-response effects in the TYK2 assay and the calculation of the IC50 for each compound.
Structure (SMILES),IC50 (human JAK1),IC50 (human JAK2),IC50 (human JAK3),IC50 (human TYK2)
"CCn1nc(C)cc1N(C)c1cc2c(cn1)ncn2C [Compound 305, (2-Ethyl-5-methyl-2H-pyrazol-3-yl)-methyl-(1-methyl-1H-imidazo[4,5-c]pyridin-6-yl)-amine]",> 1000 nM,> 1000 nM,> 1000 nM,> 1000 nM
"CN(c1cc2c(cn1)ncn2C)c1cc(C2CC2)nn1C [Compound 306, (5-Cyclopropyl-2-methyl-2H-pyrazol-3-yl)-methyl-(1-methyl-1H-imidazo[4,5-c]pyridin-6-yl)-amine]",> 1000 nM,> 1000 nM,> 1000 nM,> 1000 nM
"CCc1cn(C2(CC#N)CN(C(=O)OC(C)(C)C)C2)nc1N(C)c1cc2c(cn1)ncn2C [Compound 308, 3-Cyanomethyl-3-{4-ethyl-3-[methyl-(1-methyl-1H-imidazo[4,5-c]pyridin-6-yl)-amino]-pyrazol-1-yl}-azetidine-1-carboxylic acid tert-butyl ester]",> 1000 nM,> 1000 nM,> 1000 nM,> 1000 nM
"CCc1cn(C2(CC#N)CNC2)nc1N(C)c1cc2c(cn1)ncn2C [Compound 309, (3-{4-Ethyl-3-[methyl-(1-methyl-1H-imidazo[4,5-c]pyridin-6-yl)-amino]-pyrazol-1-yl}-azetidin-3-yl)-acetonitrile]",> 1000 nM,> 1000 nM,> 1000 nM,> 1000 nM
"CCc1cn(C2(CC#N)CN(S(C)(=O)=O)C2)nc1N(C)c1cc2c(cn1)ncn2C [Compound 310, (3-{4-Ethyl-3-[methyl-(1-methyl-1H-imidazo[4,5-c]pyridin-6-yl)-mino]-pyrazol-1-yl}-1-methanesulfonyl-azetidin-3-yl)-acetonitrile]",> 1000 nM,> 1000 nM,> 1000 nM,> 1000 nM
"CCc1cc(CN(C)S(C)(=O)=O)ncc1N(C)c1cc2c(cn1)ncn2C [Compound 317, N-{4-Ethyl-5-[methyl-(1-methyl-1H-imidazo[4,5-c]pyridin-6-yl)-amino]-pyridin-2-ylmethyl}-N-methyl-methane sulfonamide]",0.01 to 100 nM,101 to 500 nM,0.01 to 100 nM,0.01 to 100 nM
"CCc1cc(C#N)c(C(F)(F)F)cc1N(C)c1cc2c(cn1)ncn2C [Compound 321, 5-Ethyl-4-[methyl-(1-methyl-1H-imidazo[4,5-c]pyridin-6-yl)-amino]-2-trifluoromethyl-benzonitrile]",> 1000 nM,> 1000 nM,> 1000 nM,> 1000 nM
"CN(c1ccc(/C=C/C#N)cc1)c1cc2c(cn1)ncn2C [Compound 345, (E)-3-{4-[Methyl-(1-methyl-1H-imidazo[4,5-c]pyridin-6-yl)-amino]-phenyl}-acrylonitrile]",101 to 500 nM,501 to 1000 nM,> 1000 nM,> 1000 nM
CN(c1cc2c(cn1)ncn2C)c1ccc(CN(CC#N)S(C)(=O)=O)cc1F [Compound 355],0.01 to 100 nM,0.01 to 100 nM,101 to 500 nM,101 to 500 nM

# The next lines start with the values.
IC50 (human JAK1),IC50 (human JAK2),IC50 (human JAK3),IC50 (human TYK2),Structure (SMILES)
101 to 500 nM,501 to 1000 nM,> 1000 nM,> 1000 nM,"CCc1cc(N2CCCC2=O)ncc1N(C)c1cc2c(cn1)ncn2C [Compound 318, 1-{4-Ethyl-5-[methyl-(1-methyl-1H-imidazo[4,5-c]pyridin-6-yl)-amino]-pyridin-2-yl}-pyrrolidin-2-one]"
0.01 to 100 nM,501 to 1000 nM,> 1000 nM,> 1000 nM,"CCc1cc(C2CN(C(=O)CC#N)C2)ncc1N(C)c1cc2c(cn1)ncn2C [Compound 335, 3-(3-{4-Ethyl-5-[methyl-(1-methyl-1H-imidazo[4,5-c]pyridin-6-yl)-amino]-pyridin-2-yl}-azetidin-1-yl)-3-oxo-propionitrile]"
0.01 to 100 nM,> 1000 nM,> 1000 nM,> 1000 nM,"CCC(=O)N1CC(c2cc(CC)c(N(C)c3cc4c(cn3)ncn4C)cn2)C1 [Compound 336, 1-(3-{4-Ethyl-5-[methyl-(1-methyl-1H-imidazo[4,5-c]pyridin-6-yl)-amino]-pyridin-2-yl}-azetidin-1-yl)-propan-1-one]"
501 to 1000 nM,> 1000 nM,> 1000 nM,> 1000 nM,"CCc1cc(C2CN(C(=O)CCC(F)(F)F)C2)ncc1N(C)c1cc2c(cn1)ncn2C [Compound 338, 1-(3-{4-Ethyl-5-[methyl-(1-methyl-1H-imidazo[4,5-c]pyridin-6-yl)-amino]-pyridin-2-yl}-azetidin-1-yl)-4,4,4-trifluoro-butan-1-one]"
0.01 to 100 nM,101 to 500 nM,> 1000 nM,> 1000 nM,"CCc1cc(C2CN(C(=O)OC)C2)ncc1N(C)c1cc2c(cn1)ncn2C [Compound 339, 3-{4-Ethyl-5-[methyl-(1-methyl-1H-imidazo[4,5-c]pyridin-6-yl)-amino]-pyridin-2-yl}-azetidine-1-carboxylic acid methyl ester]"
101 to 500 nM,> 1000 nM,> 1000 nM,> 1000 nM,CCc1cc(C2CN(C(=O)C3CC(F)(F)C3)C2)ncc1N(C)c1cc2c(cn1)ncn2C [Compound 340]
101 to 500 nM,501 to 1000 nM,> 1000 nM,> 1000 nM,"CCc1cc(C2CN(C(=O)C3(C#N)CC3)C2)ccc1N(C)c1cc2c(cn1)ncn2C [Compound 348, 1-(3-{3-Ethyl-4-[methyl-(1-methyl-1H-imidazo[4,5-c]pyridin-6-yl)-amino]-phenyl}-azetidine-1-carbonyl)-cyclopropanecarbonitrile]"
101 to 500 nM,101 to 500 nM,> 1000 nM,> 1000 nM,"COCN(Cc1ccc(N(C)c2cc3c(cn2)ncn3C)c(F)c1)S(C)(=O)=O [Compound 359, N-{3-Fluoro-4-[methyl-(1-methyl-1H-imidazo[4,5-c]pyridin-6-yl)-amino]-benzyl}-N-methoxymethyl-methanesulfonamide]"
101 to 500 nM,101 to 500 nM,> 1000 nM,> 1000 nM,CN(c1cc2c(cn1)ncn2C)c1ccc(CN(CC2CC2)S(C)(=O)=O)cc1F [Compound 360]
501 to 1000 nM,> 1000 nM,> 1000 nM,> 1000 nM,"CN(c1cc2c(cn1)ncn2C)c1ccc(C2CN(C(=O)N3CCC3)C2)cc1OC(F)F [Compound 366, Azetidin-1-yl-(3-{3-difluoromethoxy-4-[methyl-(1-methyl-1H-imidazo[4,5-c]pyridin-6-yl)-amino]-phenyl}-azetidin-1-yl)-methanone]"
501 to 1000 nM,> 1000 nM,> 1000 nM,> 1000 nM,"CN(c1cc2c(cn1)ncn2C)c1ccc(C2CN(C(=O)N3CCCCC3)C2)cc1OC(F)F [Compound 367, (3-{3-Difluoromethoxy-4-[methyl-(1-methyl-1H-imidazo[4,5-c]pyridin-6-yl)-amino]-phenyl}-azetidin-1-yl)-piperidin-1-yl-methanone]"
501 to 1000 nM,> 1000 nM,> 1000 nM,> 1000 nM,CN(c1cc2c(cn1)ncn2C)c1ccc(C2CN(C(=O)N3CCOCC3)C2)cc1OC(F)F [Compound 368]
